Results from patent US20040171598A1, “Use of steroids to treat persons suffering from ocular disorders” (priority 2003, published 2004).

How the values were obtained:
[1] = tested on: IOP; assay: Dexamethasone acetate induced IOP elevation in rabbits; assay type: in vivo, rabbit; conditions: for IOP: rabbits with weekly subTenon's dexamethasone acetate 1 mg/kg, versus vehicle
Experimental: Three groups of rabbits received weekly subTenon's injections of dexamethasone acetate (1 mg/kg) for 4 weeks. After two weeks, the IOPs of all three groups measured approximately 5 mm Hg. The rabbits were then treated with vehicle, 0.1% anecortave acetate, a 1% anecortave acetate by topical ocular dosing three times a day for the remaining 2 weeks. The IOP continued to increase in the vehicle treated group.

[2] = tested on: retinal neovascularization; assay: Rat pup model of retinopathy of prematurity; assay type: in vivo
Experimental: Anecortave acetate was tested for its angiostatic efficacy in a rat pup model of retinopathy of prematurity (Penn, at al., Investigative Ophthalmology & Visual Science, “The Effect of an Angiostatic Steroid on Neovascularization in a Rat Model of Retinopathy of Prematurity,” Vol. 42(1):283-290, January 2001). Newborn rat pups were placed in an atmosphere of varying oxygen content. The rats received a single intravitreal injection of vehicle or anecortave acetate (500 μg) upon return to room air (day 14) or 2 days later (day 16). There was significant retinal neovascularization in the rats that receive vehicle injections.

| IOP after two weeks of dexamethasone acetate ([1]; rabbits, weekly subTenon's injections 1 mg/kg, all three groups, before anecortave acetate or vehicle dosing) | SMILES | IOP ([1]; 0.1% anecortave acetate topical ocular three times a day for 2 weeks) | IOP ([1]; 1% anecortave acetate topical ocular three times a day for 2 weeks) | inhibition of retinal neovascularization ([2]; single intravitreal injection 500 μg 2 days after return to room air (day 16)) [%] | inhibition of retinal neovascularization ([2]; single intravitreal injection 500 μg upon return to room air (day 14)) [%] |
| --- | --- | --- | --- | --- | --- |
| approximately 5 mm Hg | CC(=O)OCC(=O)[C@@]1(O)[C@H](C)C[C@H]2[C@@H]3CCC4=CC(=O)C=C[C@]4(C)[C@@]3(F)[C@@H](O)C[C@@]21C [dexamethasone acetate] |  |  |  |  |
|  | CC(=O)OCC(=O)[C@@]1(O)CC[C@H]2[C@@H]3CCC4=CC(=O)CC[C@]4(C)C3=CC[C@@]21C [anecortave acetate, 4,9(11)-pregnadien-17α,21-diol-3,20dione-21-acetate] | significantly lowered | significantly lowered | 50 | 66 |
